Legend:
Assay type in all cases: in vivo
[1] = system: upland rice (Oryza sp., var. Tebonnet, RICE); assay: Post-emerge test, crop safety; conditions: for Post-emerge Herbicidal Activity RICE: crop damage rating 0-100 at 14 days after application; for Post-emerge phytotoxicity rating RICE (crop damage): rating scale 0-100 (0 no damage, 100 complete death), 14 days after application
How it was run: (§1)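 Visual ratings on a 0-100 scale (0 no damage, 100 all plants dead) were taken at 14 days after treatment. Rates of 15-1000 g ai/ha in acetone, 187 l/ha, were sprayed onto soil one day after planting (pre-emerge) or onto 2-3 leaf plants with 0.25% v/v surfactant (post-emerge).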

[2] = system: field corn (Zea mays L., var. Dekalb 535, CORN); assay: Post-emerge test, crop safety; conditions: for Post-emerge Herbicidal Activity CORN: crop damage rating 0-100 at 14 days after application; for Post-emerge phytotoxicity rating CORN (crop damage): rating scale 0-100 (0 no damage, 100 complete death), 14 days after application
How it was run: as §1

[3] = system: upland rice (Oryza sp., var. Tebonnet, RICE); assay: Pre-emerge test, crop safety; conditions: rating scale 0-100, 14 days after application
How it was run: (§2)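 Sandy loam pots; pre-emerge: sown 1 d pre-spray, surface-watered after, then bottom-watered. Post-emerge: sown 8–21 d before, 2–3 leaf stage, + 0.25% v/v NIS, bottom-watered. Acetone, 187 l/ha track spray, 15–1000 g ai/ha. 0–100 injury score, day 14.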

[4] = system: field corn (Zea mays L., var. Dekalb 535, CORN); assay: Pre-emerge test, crop safety; conditions: rating scale 0-100, 14 days after application
How it was run: as §2

[5] = system: redroot pigweed (Amaranthus retroflexus, AMARE); assay: Pre-emerge test, greenhouse herbicide activity screening; conditions: rating scale 0-100, 14 days after application
How it was run: as §2

[6] = system: velvetleaf (Abutilon theophrasti, ABUTH); assay: Post-emerge test, greenhouse herbicide activity screening; conditions: for Post-emerge Herbicidal Activity ABUTH: phytotoxicity rating 0-100 at 14 days after application; for Post-emerge Herbicidal Activity, phytotoxicity rating ABUTH: rating scale 0-100 (0 no damage, 100 complete death), 14 days after application
How it was run: (§3)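 Compounds in acetone were track-sprayed at 187 l/ha, 15–1000 g ai/ha, onto sandy loam pots. Pre-emerge seeds were sown one day before spraying, with surface watering afterwards. Post-emerge plants were at the 2–3 leaf stage and sprayed with 0.25% v/v non-ionic surfactant. Injury was rated 0–100 at 14 days.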

[7] = system: lambsquarters (Chenopodium album, CHEAL); assay: as above; conditions: for Post-emerge Herbicidal Activity CHEAL: phytotoxicity rating 0-100 at 14 days after application; for Post-emerge Herbicidal Activity, phytotoxicity rating CHEAL: rating scale 0-100 (0 no damage, 100 complete death), 14 days after application
How it was run: as §3

[8] = system: redroot pigweed (Amaranthus retroflexus, AMARE); assay: as above; conditions: for Post-emerge Herbicidal Activity AMARE: phytotoxicity rating 0-100 at 14 days after application; for Post-emerge Herbicidal Activity, phytotoxicity rating AMARE: rating scale 0-100 (0 no damage, 100 complete death), 14 days after application
How it was run: as §3

[9] = system: sicklepod (Cassia obtusifolia, CASOB); assay: as above; conditions: for Post-emerge Herbicidal Activity CASOB: phytotoxicity rating 0-100 at 14 days after application; for Post-emerge Herbicidal Activity, phytotoxicity rating CASOB: rating scale 0-100 (0 no damage, 100 complete death), 14 days after application
How it was run: as §3

[10] = system: ivyleaf morningglory (Ipomoea hederacea, IPOHE); assay: as above; conditions: for Post-emerge Herbicidal Activity IPOHE: phytotoxicity rating 0-100 at 14 days after application; for Post-emerge Herbicidal Activity, phytotoxicity rating IPOHE: rating scale 0-100 (0 no damage, 100 complete death), 14 days after application
How it was run: as §3

[11] = system: large crabgrass (Digitaria sanguinalis, DIGSA); assay: as above; conditions: for Post-emerge Herbicidal Activity DIGSA: phytotoxicity rating 0-100 at 14 days after application; for Post-emerge Herbicidal Activity, phytotoxicity rating DIGSA: rating scale 0-100 (0 no damage, 100 complete death), 14 days after application
How it was run: as §3

[12] = system: johnsongrass (Sorghum halepense, SORHA); assay: as above; conditions: for Post-emerge Herbicidal Activity SORHA: phytotoxicity rating 0-100 at 14 days after application; for Post-emerge Herbicidal Activity, phytotoxicity rating SORHA: rating scale 0-100 (0 no damage, 100 complete death), 14 days after application
How it was run: as §3

[13] = system: green foxtail (Setaria viridis, SETVI); assay: as above; conditions: for Post-emerge Herbicidal Activity SETVI: phytotoxicity rating 0-100 at 14 days after application; for Post-emerge Herbicidal Activity, phytotoxicity rating SETVI: rating scale 0-100 (0 no damage, 100 complete death), 14 days after application
How it was run: as §3

[14] = system: barnyardgrass (Echinochloa crus-galli, ECHCG); assay: as above; conditions: for Post-emerge Herbicidal Activity ECHCG: phytotoxicity rating 0-100 at 14 days after application; for Post-emerge Herbicidal Activity, phytotoxicity rating ECHCG: rating scale 0-100 (0 no damage, 100 complete death), 14 days after application
How it was run: as §3

[15] = system: velvetleaf (Abutilon theophrasti, ABUTH); assay: Pre-emerge test, greenhouse herbicide activity screening; conditions: rating scale 0-100, 14 days after application
How it was run: as §1

[16] = system: lambsquarters (Chenopodium album, CHEAL); assay: as above; conditions: rating scale 0-100, 14 days after application
How it was run: as §1

[17] = system: sicklepod (Cassia obtusifolia, CASOB); assay: as above; conditions: rating scale 0-100, 14 days after application
How it was run: as §1

[18] = system: ivyleaf morningglory (Ipomoea hederacea, IPOHE); assay: as above; conditions: rating scale 0-100, 14 days after application
How it was run: as §1

[19] = system: large crabgrass (Digitaria sanguinalis, DIGSA); assay: as above; conditions: rating scale 0-100, 14 days after application
How it was run: as §1

[20] = system: johnsongrass (Sorghum halepense, SORHA); assay: as above; conditions: rating scale 0-100, 14 days after application
How it was run: as §1

[21] = system: green foxtail (Setaria viridis, SETVI); assay: as above; conditions: rating scale 0-100, 14 days after application
How it was run: as §1

[22] = system: barnyardgrass (Echinochloa crus-galli, ECHCG); assay: as above; conditions: rating scale 0-100, 14 days after application
How it was run: as §1

## O=C(Nc1cc(Cl)ccc1N1C(=O)C2CCCCN2C1=O)c1ccc2ccccc2c1 (stereo not shown) [12-8]
[1]; 63 g ai/ha
  Post-emerge Herbicidal Activity RICE: 20
[1]; 250 g ai/ha
  Post-emerge Herbicidal Activity RICE: 15
[2]; 63 g ai/ha
  Post-emerge Herbicidal Activity CORN: 5
[2]; 250 g ai/ha
  Post-emerge Herbicidal Activity CORN: 10
[3]; 63 g ai/ha
  Pre-emerge phytotoxicity rating, crop damage RICE: 30
[3]; 250 g ai/ha
  Pre-emerge phytotoxicity rating, crop damage RICE: 40
[4]; 63 g ai/ha
  Pre-emerge phytotoxicity rating, crop damage CORN: 0
[4]; 250 g ai/ha
  Pre-emerge phytotoxicity rating, crop damage CORN: 0
[5]; 63 g ai/ha
  Pre-emerge herbicidal activity, phytotoxicity rating AMARE: 100
[5]; 250 g ai/ha
  Pre-emerge herbicidal activity, phytotoxicity rating AMARE: 100
[6]; 63 g ai/ha
  Post-emerge Herbicidal Activity ABUTH: 100
[6]; 250 g ai/ha
  Post-emerge Herbicidal Activity ABUTH: 100
[7]; 63 g ai/ha
  Post-emerge Herbicidal Activity CHEAL: 95
[7]; 250 g ai/ha
  Post-emerge Herbicidal Activity CHEAL: 99
[8]; 63 g ai/ha
  Post-emerge Herbicidal Activity AMARE: 80
[8]; 250 g ai/ha
  Post-emerge Herbicidal Activity AMARE: 90
[9]; 63 g ai/ha
  Post-emerge Herbicidal Activity CASOB: 50
[9]; 250 g ai/ha
  Post-emerge Herbicidal Activity CASOB: 70
[10]; 63 g ai/ha
  Post-emerge Herbicidal Activity IPOHE: 90
[10]; 250 g ai/ha
  Post-emerge Herbicidal Activity IPOHE: 80
[11]; 63 g ai/ha
  Post-emerge Herbicidal Activity DIGSA: 10
[11]; 250 g ai/ha
  Post-emerge Herbicidal Activity DIGSA: 0
[12]; 63 g ai/ha
  Post-emerge Herbicidal Activity SORHA: 0
[12]; 250 g ai/ha
  Post-emerge Herbicidal Activity SORHA: 10
[13]; 63 g ai/ha
  Post-emerge Herbicidal Activity SETVI: 20
[13]; 250 g ai/ha
  Post-emerge Herbicidal Activity SETVI: 25
[14]; 63 g ai/ha
  Post-emerge Herbicidal Activity ECHCG: 10
[14]; 250 g ai/ha
  Post-emerge Herbicidal Activity ECHCG: 10
[15]; 63 g ai/ha
  Pre-emerge herbicidal activity, phytotoxicity rating ABUTH: 0
[15]; 250 g ai/ha
  Pre-emerge herbicidal activity, phytotoxicity rating ABUTH: 100
[16]; 63 g ai/ha
  Pre-emerge herbicidal activity, phytotoxicity rating CHEAL: 100
[16]; 250 g ai/ha
  Pre-emerge herbicidal activity, phytotoxicity rating CHEAL: 100
[17]; 63 g ai/ha
  Pre-emerge herbicidal activity, phytotoxicity rating CASOB: 0
[17]; 250 g ai/ha
  Pre-emerge herbicidal activity, phytotoxicity rating CASOB: 20
[18]; 63 g ai/ha
  Pre-emerge herbicidal activity, phytotoxicity rating IPOHE: 0
[18]; 250 g ai/ha
  Pre-emerge herbicidal activity, phytotoxicity rating IPOHE: 40
[19]; 63 g ai/ha
  Pre-emerge herbicidal activity, phytotoxicity rating DIGSA: 50
[19]; 250 g ai/ha
  Pre-emerge herbicidal activity, phytotoxicity rating DIGSA: 100
[20]; 63 g ai/ha
  Pre-emerge herbicidal activity, phytotoxicity rating SORHA: 10
[20]; 250 g ai/ha
  Pre-emerge herbicidal activity, phytotoxicity rating SORHA: 40
[21]; 63 g ai/ha
  Pre-emerge herbicidal activity, phytotoxicity rating SETVI: 60
[21]; 250 g ai/ha
  Pre-emerge herbicidal activity, phytotoxicity rating SETVI: 100
[22]; 63 g ai/ha
  Pre-emerge herbicidal activity, phytotoxicity rating ECHCG: 0
[22]; 250 g ai/ha
  Pre-emerge herbicidal activity, phytotoxicity rating ECHCG: 40

## C#CCOC(=O)C(Cl)Cc1c(OC)c(Cl)cc(F)c1-n1c(=O)cc(C(F)(F)F)n(C)c1=O (single isomer, unassigned) [14-19]
[1]; Rate 63 g ai/ha
  Post-emerge phytotoxicity rating RICE (crop damage): 0
[1]; Rate 250 g ai/ha
  Post-emerge phytotoxicity rating RICE (crop damage): 20
[2]; Rate 63 g ai/ha
  Post-emerge phytotoxicity rating CORN (crop damage): 0
[2]; Rate 250 g ai/ha
  Post-emerge phytotoxicity rating CORN (crop damage): 40
[3]; 63 g ai/ha
  Pre-emerge phytotoxicity rating, crop damage RICE: 0
[3]; 250 g ai/ha
  Pre-emerge phytotoxicity rating, crop damage RICE: 0
[4]; 63 g ai/ha
  Pre-emerge phytotoxicity rating, crop damage CORN: 0
[4]; 250 g ai/ha
  Pre-emerge phytotoxicity rating, crop damage CORN: 0
[5]; 63 g ai/ha
  Pre-emerge herbicidal activity, phytotoxicity rating AMARE: 0
[5]; 250 g ai/ha
  Pre-emerge herbicidal activity, phytotoxicity rating AMARE: 90
[6]; Rate 63 g ai/ha
  Post-emerge Herbicidal Activity, phytotoxicity rating ABUTH: 60
[6]; Rate 250 g ai/ha
  Post-emerge Herbicidal Activity, phytotoxicity rating ABUTH: 100
[7]; Rate 63 g ai/ha
  Post-emerge Herbicidal Activity, phytotoxicity rating CHEAL: 90
[7]; Rate 250 g ai/ha
  Post-emerge Herbicidal Activity, phytotoxicity rating CHEAL: 100
[8]; Rate 63 g ai/ha
  Post-emerge Herbicidal Activity, phytotoxicity rating AMARE: 90
[8]; Rate 250 g ai/ha
  Post-emerge Herbicidal Activity, phytotoxicity rating AMARE: 100
[9]; Rate 63 g ai/ha
  Post-emerge Herbicidal Activity, phytotoxicity rating CASOB: 40
[9]; Rate 250 g ai/ha
  Post-emerge Herbicidal Activity, phytotoxicity rating CASOB: 70
[10]; Rate 63 g ai/ha
  Post-emerge Herbicidal Activity, phytotoxicity rating IPOHE: 30
[10]; Rate 250 g ai/ha
  Post-emerge Herbicidal Activity, phytotoxicity rating IPOHE: 90
[11]; Rate 63 g ai/ha
  Post-emerge Herbicidal Activity, phytotoxicity rating DIGSA: 100
[11]; Rate 250 g ai/ha
  Post-emerge Herbicidal Activity, phytotoxicity rating DIGSA: 100
[12]; Rate 63 g ai/ha
  Post-emerge Herbicidal Activity, phytotoxicity rating SORHA: 0
[12]; Rate 250 g ai/ha
  Post-emerge Herbicidal Activity, phytotoxicity rating SORHA: 0
[13]; Rate 63 g ai/ha
  Post-emerge Herbicidal Activity, phytotoxicity rating SETVI: 0
[13]; Rate 250 g ai/ha
  Post-emerge Herbicidal Activity, phytotoxicity rating SETVI: 30
[14]; Rate 63 g ai/ha
  Post-emerge Herbicidal Activity, phytotoxicity rating ECHCG: 100
[14]; Rate 250 g ai/ha
  Post-emerge Herbicidal Activity, phytotoxicity rating ECHCG: 100
[15]; 63 g ai/ha
  Pre-emerge herbicidal activity, phytotoxicity rating ABUTH: 0
[15]; 250 g ai/ha
  Pre-emerge herbicidal activity, phytotoxicity rating ABUTH: 50
[16]; 63 g ai/ha
  Pre-emerge herbicidal activity, phytotoxicity rating CHEAL: 0
[16]; 250 g ai/ha
  Pre-emerge herbicidal activity, phytotoxicity rating CHEAL: 80
[17]; 63 g ai/ha
  Pre-emerge herbicidal activity, phytotoxicity rating CASOB: 0
[17]; 250 g ai/ha
  Pre-emerge herbicidal activity, phytotoxicity rating CASOB: 0
[18]; 63 g ai/ha
  Pre-emerge herbicidal activity, phytotoxicity rating IPOHE: 0
[18]; 250 g ai/ha
  Pre-emerge herbicidal activity, phytotoxicity rating IPOHE: 0
[19]; 63 g ai/ha
  Pre-emerge herbicidal activity, phytotoxicity rating DIGSA: 0
[19]; 250 g ai/ha
  Pre-emerge herbicidal activity, phytotoxicity rating DIGSA: 80
[20]; 63 g ai/ha
  Pre-emerge herbicidal activity, phytotoxicity rating SORHA: 0
[20]; 250 g ai/ha
  Pre-emerge herbicidal activity, phytotoxicity rating SORHA: 0
[21]; 63 g ai/ha
  Pre-emerge herbicidal activity, phytotoxicity rating SETVI: 0
[21]; 250 g ai/ha
  Pre-emerge herbicidal activity, phytotoxicity rating SETVI: 0
[22]; 63 g ai/ha
  Pre-emerge herbicidal activity, phytotoxicity rating ECHCG: 0
[22]; 250 g ai/ha
  Pre-emerge herbicidal activity, phytotoxicity rating ECHCG: 0
